In patent publication US20250382346A1, “NEURONAL PROMOTERS AND USES THEREOF” (priority 2023, published 2025):

Target: T1, rM3Ds (Rattus norvegicus, UniProt P08483, A177S/A238G/A489L/DEL261-437/DEL441-478/E258S/I253V/I483M/INS256[…]/K178L/K182A/K255R/K484R/K486H/L173F/L482A/M480V/R171S/R176Q/R179M/S481M/T174R/T181R/T257A/Y148C)
T1 sequence (P08483 with tags, fused parts or gaps Y148C/R171S/L173F/T174R/R176Q/A177S/K178L/R179M/T181R/K182A/A238G/I253V/K255R/INS256[…]/T257A/E258S/DEL261-437/DEL441-478/M480V/S481M/L482A/I483M/K484R/K486H/A489L): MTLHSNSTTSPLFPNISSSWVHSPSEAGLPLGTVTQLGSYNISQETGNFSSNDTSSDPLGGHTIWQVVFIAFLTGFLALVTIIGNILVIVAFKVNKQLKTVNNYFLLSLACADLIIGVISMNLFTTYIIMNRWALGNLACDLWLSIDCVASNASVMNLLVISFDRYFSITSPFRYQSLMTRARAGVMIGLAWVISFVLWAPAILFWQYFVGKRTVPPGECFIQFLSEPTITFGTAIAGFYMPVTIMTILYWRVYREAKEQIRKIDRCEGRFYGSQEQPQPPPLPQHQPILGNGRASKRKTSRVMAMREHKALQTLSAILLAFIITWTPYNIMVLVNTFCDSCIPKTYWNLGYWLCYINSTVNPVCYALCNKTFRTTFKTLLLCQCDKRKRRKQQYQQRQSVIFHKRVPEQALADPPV
Assay: Striatal slice whole-cell recordings of retrogradely labeled D1-MSNs, rM3Ds
Type: cell-based, mice
Set-up: 2A-EYFP (C); expressed in transfected cells; host or cells: neurons (striatal D1-MSNs) of mice or cynomolgus macaques, transduced in vivo by nigral AAV8R12-G88P7-rM3Ds-2A-EYFP
Conditions: AAV8R12-G88P7-rM3Ds-2A-EYFP; CNO 10 μM; basal firing rate and resting membrane potential unaffected
Excerpt: Mice from different groups were anesthetized with […] isoflurane, and then decapitated. The brain was quickly extracted and placed in ice-cold N-methyl-D-glucamine (NMDG) cutting solution containing (in mM): 92 NMDG, 2.5 KCl, 25 NaHCO3, 1.25 NaH2PO4, 4.5 D-Glucose, 20 HEPES, 5 L-ascorbic acid, 3 Na-pyruvate, 2 Thiourea, 10 MgSO4, 0.5 CaCl2). The pH was adjusted to 7.2±0.1 using HCl and the osmolarity was adjusted to 305±5 mosmol/L using NMDG. The solution was bubbled with 95% O2/5% CO2 prior to use. Coronal striatum slices were cut in 250-[…]m thickness with a vibratome slicer (Leica, VT1200 S), and then incubated in artificial cerebrospinal fluid (aCSF) saturated with 95% O2/5% CO2 for at least 45 min at 37° C. before recording. The aCSF contains (in mM) 125 NaCl, 1.25 KCl, 25 NaHCO3, 1.25 KH2PO4, 25 D-Glucose, 2 CaCl2) and 1 MgCl2, supplemented with 2 mM Na-pyruvate, 3 mM Myo-inositol and 0.4 mM L-ascorbic acid.
The acute striatum slice was transferred to the recording chamber with a constant perfusion of oxygenized aCSF at the rate of 3 ml/min. Neurons were visualized using an upright microscope (Olympus, BX-51) with a 40× water immersion objective at room temperature (˜25° C.). […] Neurons were quickly visualized under fluorescence microscope and then patch clamp were achieved under infrared light illumination and CCD camera. […]

C[N+]1([O-])CCN(C2=Nc3cc(Cl)ccc3Nc3ccccc32)CC1 [CNO, Clozapine-N-oxide]
excitability of labeled striatal MSNs upon CNO: enhancement in the excitability
